Results as given in ChEMBL document CHEMBL1795320, “Synthesis and antibacterial activity of novel 4″-O-benzimidazolyl clarithromycin derivatives” (2011).
Converted amounts (≈) assume the structure as drawn.

Legend:
Assay type in all cases: functional
Streptococcus pneumoniae [1] = experiment: Antibacterial activity against erythromycin-susceptible Streptococcus pneumoniae ATCC 49619 by broth microdilution method
Streptococcus pneumoniae [2] = experiment: Antibacterial activity against erythromycin-resistant Streptococcus pneumoniae B1 expressing erm gene by broth microdilution method
Streptococcus pneumoniae [3] = experiment: Antibacterial activity against erythromycin-resistant Streptococcus pneumoniae A22072 expressing mef gene by broth microdilution method
Streptococcus pneumoniae [4] = experiment: Antibacterial activity against erythromycin-resistant Streptococcus pneumoniae AB11 expressing erm and mef gene by broth microdilution method
Staphylococcus aureus [5] = experiment: Antibacterial activity against erythromycin-susceptible Staphylococcus aureus ATCC 25923 by broth microdilution method
Streptococcus pneumoniae [6] = experiment: Ratio of clarithromycin MIC to compound MIC for erythromycin-resistant Streptococcus pneumoniae A22072 expressing mef gene
Streptococcus pneumoniae [7] = experiment: Ratio of erythromycin MIC to compound MIC for erythromycin-resistant Streptococcus pneumoniae A22072 expressing mef gene
Streptococcus pneumoniae [8] = experiment: Ratio of clarithromycin MIC to compound MIC for erythromycin-resistant Streptococcus pneumoniae B1 expressing erm gene
Streptococcus pneumoniae [9] = experiment: Ratio of azithromycin MIC to compound MIC for erythromycin-resistant Streptococcus pneumoniae B1 expressing erm gene
Streptococcus pneumoniae [10] = experiment: Ratio of erythromycin MIC to compound MIC for erythromycin-resistant Streptococcus pneumoniae B1 expressing erm gene
Streptococcus pneumoniae [11] = experiment: Ratio of clarithromycin MIC to compound MIC for erythromycin-susceptible Streptococcus pneumoniae ATCC 49619
Staphylococcus aureus [12] = experiment: Ratio of clarithromycin MIC to compound MIC for erythromycin-susceptible Staphylococcus aureus ATCC 25923

Structure (SMILES)	MIC (Streptococcus pneumoniae [1]) [µg/mL]	MIC (Streptococcus pneumoniae [2]) [µg/mL]	MIC (Streptococcus pneumoniae [3]) [µg/mL]	MIC (Streptococcus pneumoniae [4]) [µg/mL]	MIC (Staphylococcus aureus [5]) [µg/mL]	Ratio (Streptococcus pneumoniae [6])	Ratio (Streptococcus pneumoniae [7])	Ratio (Streptococcus pneumoniae [8])	Ratio (Streptococcus pneumoniae [9])	Ratio (Streptococcus pneumoniae [10])	Ratio (Streptococcus pneumoniae [11])	Ratio (Staphylococcus aureus [12])
CC[C@H]1OC(=O)[C@H](C)[C@@H](O[C@H]2C[C@@](C)(OC)[C@@H](OC(=O)NNC(=O)c3ccc4[nH]c(-c5ccc([N+](=O)[O-])cc5)nc4c3)[C@H](C)O2)[C@H](C)[C@@H](O[C@@H]2O[C@H](C)C[C@H](N(C)C)[C@H]2O)[C@](C)(OC)C[C@@H](C)C(=O)[C@H](C)[C@@H](O)[C@]1(C)O	0.25 (≈ 0.233 µM)	16 (≈ 14.9 µM)	0.03 (≈ 0.028 µM)	16 (≈ 14.9 µM)	1 (≈ 0.934 µM)	133	267	–	–	–	–	–
CC[C@H]1OC(=O)[C@H](C)[C@@H](O[C@H]2C[C@@](C)(OC)[C@@H](OC(=O)NNC(=O)c3ccc4[nH]c(-c5cccc([N+](=O)[O-])c5)nc4c3)[C@H](C)O2)[C@H](C)[C@@H](O[C@@H]2O[C@H](C)C[C@H](N(C)C)[C@H]2O)[C@](C)(OC)C[C@@H](C)C(=O)[C@H](C)[C@@H](O)[C@]1(C)O	0.25 (≈ 0.233 µM)	64 (≈ 59.7 µM)	1 (≈ 0.934 µM)	128 (≈ 119 µM)	0.5 (≈ 0.467 µM)	–	–	–	–	–	–	–
CC[C@H]1OC(=O)[C@H](C)[C@@H](O[C@H]2C[C@@](C)(OC)[C@@H](OC(=O)NNC(=O)c3ccc4[nH]c(-c5ccccc5)nc4c3)[C@H](C)O2)[C@H](C)[C@@H](O[C@@H]2O[C@H](C)C[C@H](N(C)C)[C@H]2O)[C@](C)(OC)C[C@@H](C)C(=O)[C@H](C)[C@@H](O)[C@]1(C)O	0.03 (≈ 0.0292 µM)	8 (≈ 7.8 µM)	0.03 (≈ 0.0292 µM)	16 (≈ 15.6 µM)	0.25 (≈ 0.244 µM)	133	267	–	–	–	–	–
CC[C@H]1OC(=O)[C@H](C)[C@@H](O[C@H]2C[C@@](C)(OC)[C@@H](OC(=O)NNC(=O)c3ccc4[nH]c(-c5ccc(C)cc5)nc4c3)[C@H](C)O2)[C@H](C)[C@@H](O[C@@H]2O[C@H](C)C[C@H](N(C)C)[C@H]2O)[C@](C)(OC)C[C@@H](C)C(=O)[C@H](C)[C@@H](O)[C@]1(C)O	0.12 (≈ 0.115 µM)	2 (≈ 1.92 µM)	0.03 (≈ 0.0288 µM)	16 (≈ 15.4 µM)	0.25 (≈ 0.24 µM)	133	267	64	64	64	–	–
CC[C@H]1OC(=O)[C@H](C)[C@@H](O[C@H]2C[C@@](C)(OC)[C@@H](OC(=O)NNC(=O)c3ccc4[nH]c(-c5ccccc5OC)nc4c3)[C@H](C)O2)[C@H](C)[C@@H](O[C@@H]2O[C@H](C)C[C@H](N(C)C)[C@H]2O)[C@](C)(OC)C[C@@H](C)C(=O)[C@H](C)[C@@H](O)[C@]1(C)O	0.03 (≈ 0.0284 µM)	2 (≈ 1.89 µM)	0.03 (≈ 0.0284 µM)	16 (≈ 15.1 µM)	0.03 (≈ 0.0284 µM)	133	267	64	64	64	4	4
CC[C@H]1OC(=O)[C@H](C)[C@@H](O[C@H]2C[C@@](C)(OC)[C@@H](OC(=O)NNC(=O)c3ccc4[nH]c(-c5cccc(OC)c5)nc4c3)[C@H](C)O2)[C@H](C)[C@@H](O[C@@H]2O[C@H](C)C[C@H](N(C)C)[C@H]2O)[C@](C)(OC)C[C@@H](C)C(=O)[C@H](C)[C@@H](O)[C@]1(C)O	0.03 (≈ 0.0284 µM)	16 (≈ 15.1 µM)	0.03 (≈ 0.0284 µM)	32 (≈ 30.3 µM)	0.12 (≈ 0.114 µM)	133	267	–	–	–	–	–
CC[C@H]1OC(=O)[C@H](C)[C@@H](O[C@H]2C[C@@](C)(OC)[C@@H](OC(=O)NNC(=O)c3ccc4[nH]c(-c5ccc(OC)cc5)nc4c3)[C@H](C)O2)[C@H](C)[C@@H](O[C@@H]2O[C@H](C)C[C@H](N(C)C)[C@H]2O)[C@](C)(OC)C[C@@H](C)C(=O)[C@H](C)[C@@H](O)[C@]1(C)O	0.12 (≈ 0.114 µM)	4 (≈ 3.79 µM)	0.03 (≈ 0.0284 µM)	16 (≈ 15.1 µM)	0.25 (≈ 0.237 µM)	133	267	–	–	–	–	–
CC[C@H]1OC(=O)[C@H](C)[C@@H](O[C@H]2C[C@@](C)(OC)[C@@H](OC(=O)NNC(=O)c3ccc4[nH]c(-c5ccccc5Cl)nc4c3)[C@H](C)O2)[C@H](C)[C@@H](O[C@@H]2O[C@H](C)C[C@H](N(C)C)[C@H]2O)[C@](C)(OC)C[C@@H](C)C(=O)[C@H](C)[C@@H](O)[C@]1(C)O	0.03 (≈ 0.0283 µM)	32 (≈ 30.2 µM)	0.03 (≈ 0.0283 µM)	32 (≈ 30.2 µM)	0.06 (≈ 0.0566 µM)	133	267	–	–	–	–	–
CC[C@H]1OC(=O)[C@H](C)[C@@H](O[C@H]2C[C@@](C)(OC)[C@@H](OC(=O)NNC(=O)c3ccc4[nH]c(-c5ccc(Cl)cc5)nc4c3)[C@H](C)O2)[C@H](C)[C@@H](O[C@@H]2O[C@H](C)C[C@H](N(C)C)[C@H]2O)[C@](C)(OC)C[C@@H](C)C(=O)[C@H](C)[C@@H](O)[C@]1(C)O	0.03 (≈ 0.0283 µM)	8 (≈ 7.54 µM)	0.03 (≈ 0.0283 µM)	16 (≈ 15.1 µM)	0.5 (≈ 0.471 µM)	133	267	–	–	–	–	–
CC[C@H]1OC(=O)[C@H](C)[C@@H](O[C@H]2C[C@@](C)(OC)[C@@H](O)[C@H](C)O2)[C@H](C)[C@@H](O[C@@H]2O[C@H](C)C[C@H](N(C)C)[C@H]2O)[C@](C)(O)C[C@@H](C)CN(C)[C@H](C)[C@@H](O)[C@]1(C)O [AZITHROMYCIN]	0.12 (≈ 0.16 µM)	128 (≈ 171 µM)	4 (≈ 5.34 µM)	256 (≈ 342 µM)	0.12 (≈ 0.16 µM)	–	–	–	–	–	–	–
CC[C@H]1OC(=O)[C@H](C)[C@@H](O[C@H]2C[C@@](C)(OC)[C@@H](O)[C@H](C)O2)[C@H](C)[C@@H](O[C@@H]2O[C@H](C)C[C@H](N(C)C)[C@H]2O)[C@](C)(OC)C[C@@H](C)C(=O)[C@H](C)[C@@H](O)[C@]1(C)O [CLARITHROMYCIN]	0.12 (≈ 0.16 µM)	128 (≈ 171 µM)	4 (≈ 5.35 µM)	128 (≈ 171 µM)	0.12 (≈ 0.16 µM)	–	–	–	–	–	–	–
CC[C@H]1OC(=O)[C@H](C)[C@@H](O[C@H]2C[C@@](C)(OC)[C@@H](O)[C@H](C)O2)[C@H](C)[C@@H](O[C@@H]2O[C@H](C)C[C@H](N(C)C)[C@H]2O)[C@](C)(O)C[C@@H](C)C(=O)[C@H](C)[C@@H](O)[C@]1(C)O [ERYTHROMYCIN]	0.12 (≈ 0.164 µM)	128 (≈ 174 µM)	8 (≈ 10.9 µM)	256 (≈ 349 µM)	0.12 (≈ 0.164 µM)	–	–	–	–	–	–	–
